Data set [1] in a line: Antiproliferative activity against human EJ138 cells treated with extract obtained from 1 hr incubation of compound with CYP1A1 bactosome measured after 96 hrs by MTT assay. The data set is classed as functional, cell-based. (Formazan colour is commonly taken as a measure of viable cells.)
A short description of data set [2]: Potentiation factor, ratio of IC50 for human EJ138 cells treated with extract obtained from 1 hr incubation of compound with control bactosome to IC50 of human EJ138 treated with extract obtained from 1 hr incubation of compound with CYP1B1 bactosome. The class given is functional.
Data set [3] can be described thus: Antiproliferative activity against human EJ138 cells after 96 hrs by MTT assay. The data set is classed as functional, cell-based. As to conditions: EJ138, 96 h.
For data set [4], the system named is CHO. Nature of the data set: Antiproliferative activity against CHO cells expressing CYP1A1 assessed as growth inhibition after 96 hrs by MTT assay. The class given is functional, cell-based. Conditions: Cricetulus griseus.
A short description of data set [5]: Drug metabolism in mouse liver microsomes at 100 uM after 2 hrs by HPLC/mass spectrometry analysis in presence of NADPH. The class given is ADME, Microsome. Background: Liver microsomes are a subcellular fraction often used to study metabolism.
The nature of data set [6]: Antiproliferative activity against human EJ138 cells treated with extract obtained from 1 hr incubation of compound with CYP1B1 bactosome measured after 96 hrs by MTT assay. The class given is functional, cell-based.
The nature of data set [7]: Potentiation factor, ratio of IC50 for human EJ138 cells treated with extract obtained from 1 hr incubation of compound with control bactosome to IC50 of human EJ138 treated with extract obtained from 1 hr incubation of compound with CYP2D6 bactosome. The class given is functional.
A short description of data set [8]: Antiproliferative activity against human EJ138 cells treated with extract obtained from 1 hr incubation of compound with control bactosome measured after 96 hrs by MTT assay. The data set is classed as functional, cell-based.
The subject of data set [9] is HEK293. The experiment in a line: Antiproliferative activity against human HEK293 cells expressing CYP2W1 assessed as growth inhibition after 96 hrs by MTT assay. The data set is classed as functional, cell-based. Conditions: HEK293, 96 h.
Data set [10] relates to RT-112. The experiment in a line: Antiproliferative activity against human RT112 cells expressing CYP1A1 assessed as growth inhibition after 96 hrs by MTT assay. The class given is functional, cell-based. Conditions: RT-112, 96 h.
A short description of data set [11]: Antiproliferative activity against human EJ138 cells treated with extract obtained from 1 hr incubation of compound with CYP2D6 bactosome measured after 96 hrs by MTT assay. The class given is functional, cell-based.
The nature of data set [12]: Antiproliferative activity against human EJ138 cells treated with extract obtained from 1 hr incubation of compound with CYP1A2 bactosome measured after 96 hrs by MTT assay. The class given is functional, cell-based.
A short description of data set [13]: Potentiation factor, ratio of IC50 for human EJ138 cells treated with extract obtained from 1 hr incubation of compound with control bactosome to IC50 of human EJ138 treated with extract obtained from 1 hr incubation of compound with CYP3A4 bactosome. The data set is classed as functional.
Data set [14] in a line: Potentiation factor, ratio of IC50 for human EJ138 cells treated with extract obtained from 1 hr incubation of compound with control bactosome to IC50 of human EJ138 treated with extract obtained from 1 hr incubation of compound with CYP1A1 bactosome. The data set is classed as functional.
Data set [15] can be described thus: Antiproliferative activity against human EJ138 cells treated with extract obtained from 1 hr incubation of compound with CYP3A4 bactosome measured after 96 hrs by MTT assay. The class given is functional, cell-based.
A short description of data set [16]: Potentiation factor, ratio of IC50 for human EJ138 cells treated with extract obtained from 1 hr incubation of compound with control bactosome to IC50 of human EJ138 treated with extract obtained from 1 hr incubation of compound with CYP1A2 bactosome. The class given is functional.
Another data set concerns Liver. Nature of the data set: Drug metabolism in mouse liver homogenate at 100 uM up tp 120 mins by LC/MS analysis. The class given is ADME, tissue-based. Conditions: tissue homogenate, 2 h.
Data set [17] has as its system CHO. The experiment in a line: Antiproliferative activity against CHO cells assessed as growth inhibition after 96 hrs by MTT assay. Conditions: Cricetulus griseus. The class given is cell-based.
The test system of data set [18] is CYP1A1. Nature of the data set: Potentiation factor, ratio of IC50 for wild type HEK293 cells to IC50 of HEK293 cells expressing CYP1A1. The data set is classed as ADME, cell-based. As to conditions: human, wild type HEK293 cells and HEK293 cells expressing CYP1A1; read-out: Ratio IC50.
For data set [19], the system named is CYP1A1. The experiment in a line: Potentiation factor, ratio of IC50 for wild type CHO cells to IC50 of CHO cells expressing CYP1A1. The class given is ADME, cell-based, Cricetulus griseus. Conditions: chinese hamster, wild type CHO cells and CHO cells expressing CYP1A1; read-out: Ratio IC50.
For data set [20], the system named is HEK293. The experiment in a line: Induction of DNA damage in human HEK293 cells expressing CYP2W1 assessed as phosphorylation of gammaH2A.X at 0.5 to 5 uM after 48 hrs by Western blotting analysis. The class given is functional, cell-based. On the technique in general: A western blot detects proteins with antibodies after separation by electrophoresis.
Data set [21] deals with HEK293. The experiment in a line: Induction of cell death in mock-transfected human HEK293 cells t 0.5 to 5 uM after 48 hrs by trypan blue assay. The class given is cell-based. Conditions: hek293, 48 h.
Data set [22] has as its system RT-112. The experiment in a line: Induction of cell death in human RT112 cells after 48 hrs at 0.5 to 5 uM by trypan blue assay. The class given is functional, cell-based.
In data set [23] the test system is HEK293. Nature of the data set: Induction of cell death in human HEK293 cells expressing CYP2W1 t 0.5 to 5 uM after 48 hrs by trypan blue assay. The class given is functional, cell-based.
Data set [24] concerns HEK293. The experiment in a line: Induction of DNA damage in mock-transfected human HEK293 assessed as phosphorylation of gammaH2A.X at 0.5 to 5 uM after 48 hrs by Western blotting analysis. The class given is cell-based. Conditions: hek293, 48 h.
For data set [25], the system named is RT-112. Nature of the data set: Induction of DNA damage in human RT112 cells assessed as phosphorylation of gammaH2A.X at 0.5 to 5 uM after 48 hrs by Western blotting analysis. The class given is functional, cell-based.
The subject of data set [26] is HEK293. Nature of the data set: Antiproliferative activity against human HEK293 cells assessed as growth inhibition after 96 hrs by MTT assay. The class given is cell-based. As to conditions: HEK293, 96 h.

Activity calls are given as the source filed them. No cut-off for these calls is given here.

For the compound `COc1ccc2[nH]c(C(=O)N3CC(CCl)c4c3ccc3ccccc43)cc2c1` (stereo not drawn), the IC50 in data set [1] is 0.02 µM; in [3] it was 2.88 µM; in the data set with CHO [4], 0.96 µM; in data set [6], 1.53 µM; in data set [8], 1.99 µM; in the data set on HEK293 [9], above 50 µM. Also, the half-maximal inhibitory concentration (IC50) in the data set with RT-112 [10] is above 50 µM; in data set [11], 2.53 µM; in data set [12], 2.23 µM; in data set [15] it was 1.04 µM; with CHO [17], above 50 µM. The “Ratio IC50” value is 1.3 in data set [2]; 0.79 in [7]; 1.91 in data set [13]; 100 in [14]; 0.9 in [16]. For the same compound, the Drug metabolism result (in data set [5]; with Liver) was “Active” throughout.

Regarding `O=C(c1cc2cc(F)c(F)cc2[nH]1)N1CC(CCl)c2c1ccc1[nH]ccc21` (stereo not drawn), the selectivity ratio in the data set on CYP1A1 [18] was determined as 2.6; in the data set on CYP1A1 [19], 80. The IC50 in the data set on CHO [4] turned out to be 0.23 µM; with HEK293 [9] it was 3.7 µM; in the data set on RT-112 [10] it was 1.8 µM; in the data set with CHO [17], 18.4 µM.

In the case of `COc1ccc2[nH]c(C(=O)N3CC(CCl)c4c3cc(O)c3ccccc43)cc2c1` (stereo not drawn), the selectivity ratio in the data set with CYP1A1 [18] was determined as 0.2; in the data set with CYP1A1 [19] it was 1.9. The IC50 stood at 102 µM with CHO [4], 641 µM with HEK293 [9], 151 µM in the data set on RT-112 [10] and 194 µM in the data set with CHO [17].

`CS(=O)(=O)c1cc(F)cc2cc(C(=O)N3CC(CCl)c4c3ccc3[nH]ccc43)[nH]c12` (stereo not drawn): the values for the selectivity ratio with CYP1A1 [18] and with CYP1A1 [19] were 0.9 and 0.8, respectively. Also, the half-maximal inhibitory concentration (IC50) amounted to 4.1 µM in the data set on CHO [4], 12.2 µM in the data set on HEK293 [9], 7.7 µM in the data set on RT-112 [10] and 3.2 µM with CHO [17].

With `COc1ccc2[nH]c(C(=O)N3CC(CCl)c4c3ccc3[nH]ccc43)cc2c1` (stereo not drawn), the selectivity ratio in the data set with CYP1A1 [18] was 14.7; with CYP1A1 [19], above 3200. Further, the 50% inhibitory concentration (IC50) in the data set with CHO [4] is below 0.001 µM; in the data set with HEK293 [9], 0.6 µM; with RT-112 [10], 0.2 µM; with CHO [17], 3.2 µM. Moreover, the result in the data set with HEK293 [20], with RT-112 [22], in the data set with HEK293 [23] and in the data set with RT-112 [25] was Active. Further, the Activity result in the data set with HEK293 [21] and in the data set with HEK293 [24] was “Non-toxic” throughout.

Turning to `O=C(c1cc2cc(F)cc(F)c2[nH]1)N1CC(CCl)c2c1ccc1[nH]ccc21` (stereo not drawn), the selectivity ratio in the data set with CYP1A1 [18] was 1.1; in the data set on CYP1A1 [19] it was below 21. In addition, the IC50 is above 1 µM in the data set with CHO [4], 9.1 µM with HEK293 [9], 12.3 µM in the data set on RT-112 [10] and 21 µM in the data set with CHO [17].

Consider `O=C(c1cc2cc(O)ccc2[nH]1)N1CC(CCl)c2c1ccc1[nH]ccc21` (stereo not drawn), for which the selectivity ratio with CYP1A1 [18] came to 0.8; in the data set on CYP1A1 [19], 11. Besides, the half-inhibitory concentration (IC50) in the data set on CHO [4] turned out to be 0.3 µM; in the data set with HEK293 [9], 20.5 µM; in the data set on RT-112 [10], 32.7 µM; in the data set on CHO [17], 3.3 µM.

For `O=C(c1cc2cc(Cl)ccc2[nH]1)N1CC(CCl)c2c1ccc1[nH]ccc21` (stereo not drawn), the figures for the selectivity ratio with CYP1A1 [18] and in the data set with CYP1A1 [19] were 41.7 and above 23200, respectively. The IC50 in the data set on CHO [4] is below 0.001 µM; in the data set with HEK293 [9] it was 0.3 µM; with RT-112 [10] it was 0.7 µM; with CHO [17], 23.2 µM.

For `COc1cc2cc(C(=O)N3CC(CCl)c4c3ccc3[nH]ccc43)[nH]c2cc1OC` (stereo not drawn), the selectivity ratio in the data set on CYP1A1 [18] was 1.3; with CYP1A1 [19], above 3000. In addition, the concentration for half-maximal inhibition (IC50) in the data set on CHO [4] is below 0.001 µM; with HEK293 [9], 6.1 µM; with RT-112 [10], 0.3 µM; in the data set with CHO [17], 3 µM. Further, the result in the data set with HEK293 [20], in the data set on RT-112 [22], in the data set with HEK293 [23] and in the data set with RT-112 [25] was Active. For the same compound, the Activity entry in the data set with HEK293 [21] and with HEK293 [24] was “Non-toxic” each time.

On to `COc1cc2cc(C(=O)N3CC(CCl)c4c3ccc3[nH]ccc43)[nH]c2c(OC)c1OC` (stereo not drawn), for which the selectivity ratio in the data set on CYP1A1 [18] was 1.1; in the data set with CYP1A1 [19] it was 2.4. Besides, the IC50 was 3.1 µM in the data set with CHO [4], 11.1 µM in the data set with HEK293 [9], 7 µM in the data set on RT-112 [10] and 7.5 µM with CHO [17]. Besides, the outcome in the data set with HEK293 [20], in the data set with RT-112 [22], in the data set with HEK293 [23] and in the data set on RT-112 [25] was Active. Also, the Activity entry in the data set with HEK293 [21] and in the data set with HEK293 [24] was “Non-toxic” each time.

As for `O=C(c1cc2cc(F)ccc2[nH]1)N1CC(CCl)c2c1ccc1[nH]ccc21` (stereo not drawn), the selectivity ratio worked out at 21 in the data set on CYP1A1 [18] and 251 with CYP1A1 [19]. Also, the IC50 with CHO [4] was 0.09 µM; in the data set with HEK293 [9] it was 0.5 µM; in the data set on RT-112 [10] it was 11.1 µM; in the data set with CHO [17], 22.6 µM.

Turning to `COc1ccc2[nH]c(C(=O)N3CC(CCl)c4c3cc(O)c3[nH]ccc43)cc2c1` (stereo not drawn), the IC50 with HEK293 [26] was 0.000453 µM; in the data set on CHO [4], 0.000624 µM; in the data set on HEK293 [9], 0.000376 µM; in the data set on RT-112 [10], 0.000125 µM; in the data set with CHO [17] it was 0.000167 µM. Besides, the figures for the selectivity ratio in the data set with CYP1A1 [18] and with CYP1A1 [19] were 1.2 and 0.2, respectively.

The IC50 is the concentration that gives 50% inhibition.
